Test results reported in patent US20260091086A1, “POLYPEPTIDE COMBINATIONS AND USES THEREOF” (MEDIMMUNE LIMITED, priority 2024, published 2026).
Numbered stars: 1 amine (or outer) side, 2 acyl side, 3 side chain; on linkers, the order of the positions; unused ones are H or OH. Bridge positions count the residues as written; N and C are the ends. Square brackets hold non-standard residues; d marks the D form. Side chains are listed from the residue outwards. Ends that are not written are not given here. * marks the point of attachment. C18 diacid = O=C(O)CCCCCCCCCCCCCCCCC(=O)*; γGlu = O=C(O)[C@H](CCC(=O)[*:2])N[*:1]; αMeF = C[C@](N)(Cc1ccccc1)C(=O)O

Tested on: DIO Sprague-Dawley rats
Assay: Example 6: treatment switch / add-on study after GLP-1RA lead-in
Type: in vivo, rat
Conditions: for body weight change, % of day 0 body weight: day 30
Experimental: Study Design: Male DIO Sprague-Dawley rats were fed a high-fat diet (32.5% kcal fat, D12266B; Research Diets) for approximately 8 weeks prior to study start. Rats were dosed SC for 15 days with Vehicle (n=16) or GLP-1RA (n=32) (5 nmol/kg) once-daily (QD). Beginning on day 16 rats initially treated with Vehicle either continued with Vehicle (n=8) or were switched to LAA (7.5 nmol/kg, n=8) administration. Rats initially receiving GLP-1RA treatment either continued with GLP-1RA, were switched to LAA (7.5 nmol/kg), were switched to Vehicle, or continued with GLP-1RA with addition of LAA treatment (7.5 nmol/kg) for duration of study (day 30), with n=8/group. Body weight was measured daily through-out study. Data reported as mean±standard error of the mean (SEM); data analysis performed using GraphPad Prism In this experiment, the LAA was that of SEQ ID NO: 11, and the GLP-1R agonist was semaglutide.

[1] = end of study, after initial GLP-1RA: GLP-1RA continued, switched to LAA, or Combination

K(γE-γE-C18diacid)[CNTATC]ATQRLANFLRHSSNN(αMePhe)GPILPPTEVGSNTY-amide (K([γGlu-γGlu-C18 diacid])CNTATCATQRLANFLRHSSNN[αMeF]GPILPPTEVGSNTY-NH2; disulfide 2-7) [LAA]
total lean mass at the end of the study (FIG. 5E): trend towards the animals switching to LAA therapy preserving the most lean mass
fasting leptin levels at the end of the study (compared to discontinuing therapy at day 15, FIG. 5F): significantly reduced
body weight change, % of day 0 body weight (switched from GLP-1RA to LAA 7.5 nmol/kg on day 16): −3.4%
body weight change, % of day 0 body weight (switched from Vehicle to LAA 7.5 nmol/kg on day 16): +1.1%
Fat [1]: 103.70 g
Fat, Δ from Control [1]: 41.95 g
change in body weight normalized to Vehicle (end of study, switched from GLP-1RA to LAA): −12%
change in body weight normalized to Vehicle (end of study, switched from VH to LAA): −7.1%
Fat, Δ from Vehicle (end of study, vs group switched from GLP-1RA to Vehicle): 27.21 g
